Tests used:
[1] = test system: passive cutaneous anaphylaxis (PCA), ovalbumin challenge; experiment: Passive cutaneous anaphylaxis (PCA) in rats; format: in vivo, Male Wistar rats; conditions: S.C., PBS with NaHCO3, rat
Protocol: Serum containing heat labile homocytotropic anitbody was raised in rats to crystallized ovalbumin XOA by the method of Mota (I. Mota, Immunology, 7,681 [1964]) using Bordettela pertussis vaccine as adjuvant.
Passive cutaneous anaphylaxis (PCA) was carried out by a method based on that of Ovary and Bier, (A. Ovary and O. G. Bier, Proc. Soc. Exp. Biol. Med. 81, 584, [1952]) as modified by Goose and Blair. (Immunology 16, 749 (1969).
Male Wistar rats of 250-300 g. were given 0.1 ml. of each of six twofold serial dilutions of pooled antiserum in 0.9% saline injected intradermally into separate sites on their shaved backs. Later (72 hrs.) the animals were challenged by intravenous injection of 0.3 ml. of a 1% solution of ovalbumin in an isotonic solution of saline buffered with 0.05 M, pH 7.2, Sorenson Buffer (PBS), mixed with 0.2 ml. of a 5% solution of Pontamine Sky Blue (6BX C.I. 24410, Raymond A. Lamb, London) in isotonic saline. The rats were killed after 20 min and the diameter of the blue wheals at the antibody injection sites was measured on the outer surface of the skin. The starting dilution of the serum was adjusted so that there was no response, after challenge, at the injection site of the highest dilution and a maximum response at the lowest dilutions. Typically six twofold serial dilutions of the serum from 1/4 to 1/128 were used.
Compounds were tested for their ability to reduce the diameter of the wheals at those intradermal sites which in control animals gave less than maximum response. Each dose of the compound was administered to six rats at a measured time prior to intravenous challenge with ovalbumin. Control groups of six rats were given the same volume of carrier fluid (0.2 ml, 100 g^-1) at the same time prior to challenge.
The results were calculated as follows: % inhibition of PCA=100 (1-a/b) where a=the sum of the diameters of the wheals produced in the test animal at the sites of antibody dilutions as used in control groups and b=the mean sum of the diameters of the wheals produced in the control group of animals at those antibody sites where at least five out of six of the animals gave less than maximum response. A typical variations in the control group of animals was SEM±6%.

[2] = Oral LD50 toxicity; format: in vivo; conditions: rat, in vivo, Charles River Sprage Dawley CD strain male rats
Text: (§1) Toxicity: Oral LD50 of the compound of example 1(d) in Charles River Sprage Dawley CD strain Male Rats: 980 mgkg^-1. LD50 data confidence limits: 95%, 548-1,413 mgkg^-1.

[3] = test system: Charles River Sprage Dawley CD strain Male Rats; experiment: Oral LD50 toxicity; format: in vivo; conditions: 95% confidence limits
Text: as §1

O=C1c2ccccc2C(=O)c2[nH]nnc21 [Example 8, 4,9-Dihydro-4,9-dioxo-1H-naphtho[2,3-d]-triazole]
% Inhib PCA ([1]; 5 mins, 1 mg/kg): 39%
% Inhib PCA ([1]; 5 mins, 2 mg/kg): 82%

Cc1cc2c(c([N+](=O)[O-])c1C)C(=O)c1nn[nH]c1C2=O [Example 6, 4,9-Dihydro-6,7-dimethyl-4,9-dioxo-5-nitronaphtho[2,3-d]-triazole]
% Inhib PCA ([1]; 10 mins, 1 mg/kg): 66%
% Inhib PCA ([1]; 30 mins, 1 mg/kg): 28%

Cc1ccc2c(c1)C(=O)c1nn[nH]c1C2=O [2(d), 4,9-Dihydro-4,9-dioxo-6methyl-1H-naphtho[2,3-d]-triazole]
% Inhib PCA ([1]; 10 mins, 20 mg/kg): 73%
% Inhib PCA ([1]; 30 mins, 20 mg/kg): 57%

Cc1cc2c(cc1C)C(=O)c1[nH]nnc1C2=O [1(d), 4,9-dihydro-6,7-dimethyl-4,9-dioxo-1H-naphtho[2,3-d]-triazole]
LD50 [2]: 980 mg/kg
LD50 data confidence limits: 95% [3]: 548-1,413 mgkg^-1
% Inhib PCA ([1]; 5 mins, 0.1 mg/kg): 30%
% Inhib PCA ([1]; 5 mins, 0.2 mg/kg): 54%
% Inhib PCA ([1]; 5 mins, 0.4 mg/kg): 61%
% Inhib PCA ([1]; 5 mins, 0.8 mg/kg): 86%

O=C1c2cccc([N+](=O)[O-])c2C(=O)c2[nH]nnc21 [Example 4, 4,9-Dihydro-4,9-dioxo-5-nitro-1H-naphtho-[2,3-d]-triazole]
% Inhib PCA ([1]; 10 mins, 10 mg/kg): 44%
% Inhib PCA ([1]; 30 mins, 10 mg/kg): 19%

COc1ccc2c(c1)C(=O)c1nn[nH]c1C2=O [3(e), 4,9-Dihydro-4,9-dioxo-6-methoxy-1H-naphtho[2,3-d]-triazole]
% Inhib PCA ([1]; 10 mins, 20 mg/kg): 61%
% Inhib PCA ([1]; 30 mins, 20 mg/kg): 34%

O=C1c2ccc(F)cc2C(=O)c2[nH]nnc21 [5(e), 4,9-Dihydro-4,9-dioxo-6-fluoro-1H-naphtho[2,3-d]-triazole]
% Inhib PCA ([1]; 10 mins, 20 mg/kg): 90%
% Inhib PCA ([1]; 30 mins, 20 mg/kg): 27%

Source: patent US4263309A, “Polycyclic triazoles used to inhibit allergic responses” (Beecham Group Limited, priority 1977, dated 1981)
